For data set [1], the system named is A549 human lung cancer tumor. The data set is described as follows: Tissue distribution in lung tumor-bearing nude mice. It counts as in vivo. The method, then: Female athymic nude mice (NCr-nu/nu, NCI, Bethasda, Md.) were inoculated with human lung cancer cells (A549 tumor cell line, 3×10^6 cells/mouse, intramuscular) by one author in the mid-dorsal region. After the tumor reached 6 mm, separate biodistribution studies using ^99mTc-EC-DG and 18F-FDG were conducted. Each received ^99mTc-EC-DG or 18F-FDG intravenously (n=3/time point). The injection activity was 1-3 μCi/mouse. The injected mass of ^99mTc-EC-DG was 0.2 mg/rodent.

The nature of data set [2]: In vitro cell culture of ^99mTc-EC-DG with or without transition chelators. It counts as cell-based. From the text:
It may also be important to include an antioxidant and a transition chelator in the composition to prevent oxidation of the ethylenedicysteine. For example, the antioxidant may be vitamin C (ascorbic acid). However, other antioxidants known to those of ordinary skill in the art, such as tocopherol, pyridoxine, thiamine, or rutin, may also be used. Any transition chelator known to those of ordinary skill in the art may be used in conjunction with the present invention. Examples of transition chelators include glucoheptonate, gluconate, glucarate, citrate, and tartarate.

Data set [3] relates to human prostate cancer cells (LNCap, PC-3). The data set is described as follows: In vitro cellular uptake in human prostate cancer cells. The class given is cell-based. The conditions noted are these: 0.5-2 hrs, LNCap and PC-3. The method, then:
An in vitro cell culture using tumor cells was incubated with ^99mTc-EC-LHRH (4-6 μCi/100,000 cells/well) at 0.5-2 hrs in human prostate cancer cells. Two types cell lines were used. They are either sensitive to androgen (LNCap) or unresponsive to androgen (PC-3) therapy.

Ends that are not written are not given here.

Turning to `O=C(N[C@H]1C(O)O[C@H](CO)[C@@H](O)[C@@H]1O)[C@@H]1C[S][Tc]23(=[O])[S]C[C@@H](C(=O)N[C@H]4C(O)O[C@H](CO)[C@@H](O)[C@@H]4O)[N]2CC[N]13` (stereo partly drawn) [^99mTc-EC-DG], in data set [1] (30 min), the Blood is 1.607 ± 0.389 % of injected dose per gram of tissue weight, the Brain was 0.058 ± 0.008 % of injected dose per gram of tissue weight, the Heart is given as 0.611 ± 0.193 % of injected dose per gram of tissue weight and the Intestine is reported as 0.510 ± 0.093 % of injected dose per gram of tissue weight. Further, in data set [1] (30 min), the Kidney is listed as 6.726 ± 1.842 % of injected dose per gram of tissue weight, the Liver is on record as 5.674 ± 2.089 % of injected dose per gram of tissue weight, the Lung is on record as 1.048 ± 0.259 % of injected dose per gram of tissue weight and the Muscle is on record as 0.264 ± 0.072 % of injected dose per gram of tissue weight. Besides, in data set [1] (30 min), the Spleen was 3.240 ± 1.709 % of injected dose per gram of tissue weight, the Stomach is 0.540 ± 0.113 % of injected dose per gram of tissue weight, the Thyroid is reported as 0.929 ± 0.212 % of injected dose per gram of tissue weight and the Tumor is on record as 0.787 ± 0.163 % of injected dose per gram of tissue weight. In data set [1] (30 min), this molecule returned a Tumor/Blood of 0.499 ± 0.022, a Tumor/Lung of 0.769 ± 0.047 and a Tumor/Muscle of 3.352 ± 0.749. In data set [1] (2 h), the Blood is 0.977 ± 0.267 % of injected dose per gram of tissue weight, the Brain is 0.042 ± 0.006 % of injected dose per gram of tissue weight, the Heart was 0.336 ± 0.080 % of injected dose per gram of tissue weight and the Intestine is 0.417 ± 0.110 % of injected dose per gram of tissue weight. Also, in data set [1] (2 h), the Kidney is 5.687 ± 1.540 % of injected dose per gram of tissue weight, the Liver is reported as 5.807 ± 1.708 % of injected dose per gram of tissue weight, the Lung was 0.721 ± 0.210 % of injected dose per gram of tissue weight and the Muscle is 0.148 ± 0.039 % of injected dose per gram of tissue weight. Further, in data set [1] (2 h), the Spleen is recorded as 4.205 ± 1.374 % of injected dose per gram of tissue weight, the Stomach is given as 0.439 ± 0.138 % of injected dose per gram of tissue weight, the Thyroid is listed as 0.665 ± 0.207 % of injected dose per gram of tissue weight and the Tumor is recorded as 0.415 ± 0.123 % of injected dose per gram of tissue weight. In addition, in data set [1] (2 h), the Tumor/Blood is on record as 0.424 ± 0.022, the Tumor/Lung was 0.587 ± 0.046 and the Tumor/Muscle is reported as 2.754 ± 0.120. Also, in data set [1] (4 h), the Blood is 0.787 ± 0.152 % of injected dose per gram of tissue weight, the Brain is given as 0.042 ± 0.006 % of injected dose per gram of tissue weight, the Heart is 0.318 ± 0.071 % of injected dose per gram of tissue weight and the Intestine was 0.374 ± 0.073 % of injected dose per gram of tissue weight. In data set [1] (4 h), the Kidney is given as 4.318 ± 0.890 % of injected dose per gram of tissue weight, the Liver was 6.656 ± 1.786 % of injected dose per gram of tissue weight, the Lung is 0.606 ± 0.128 % of injected dose per gram of tissue weight and the Muscle is reported as 0.147 ± 0.022 % of injected dose per gram of tissue weight. Also, in data set [1] (4 h), the Spleen is given as 5.933 ± 3.194 % of injected dose per gram of tissue weight, the Stomach is on record as 0.541 ± 0.119 % of injected dose per gram of tissue weight, the Thyroid is given as 0.692 ± 0.119 % of injected dose per gram of tissue weight and the Tumor was 0.414 ± 0.161 % of injected dose per gram of tissue weight. In data set [1] (4 h), the Tumor/Blood is 0.502 ± 0.120, the Tumor/Lung is reported as 0.640 ± 0.120 and the Tumor/Muscle amounted to 2.795 ± 0.982. Further, the “tumor-to-tissue ratios, ^99mTc-EC-DG versus 18F-FDG” value in data set [1] (A549 nude mice, iv) is “higher tumor/muscle and tumor/brain ratios as a function of time”. Also, the “stability with or without transition chelators (gluconate and glucarate)” value in data set [2] is recorded as “does not interfere with the stability”.
Consider “^99mTc-EC-LHRH (QHWSYGLRPG; also: 99mTc-ethylenedicysteine label, site not given here; UniProt P01148 24-33, looked up)”, for which the “cellular uptake compared to ^99mTc-EC” value in data set [3] is on record as “significant increased uptake”.

These data come from patent US9050378B2, “N2S2 chelate-targeting ligand conjugates” (Board of Regents, The University of Texas System, priority 2003, dated 2015).
